This is an account of results in PubChem BioAssay (NCI).

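How tested: cells in 96-well plates exposed to compound for 48 hours at five concentrations. Abbreviation: GI50, concentration required for 50% inhibition of growth. TGI: total growth inhibition.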

Among the test systems are HT29 colon; NCI-H23 lung; K-562 leukemia; MALME-3M melanoma; NCI-H226 lung; SK-MEL-2 melanoma; OVCAR-5 ovarian; A549 NSCLC; OVCAR-8 ovarian; A498 renal; HCT-15 colon; SNB-75 CNS.
What all share (assay): inhibition of tumour cell growth, NCI panel, 48 h

As to `COc1cc(-c2c(C#N)c(N)c(C#N)c3c2COc2ccccc2-3)cc(OC)c1OC`, the TGI with HT29 colon was over 100 µM; in the experiment on NCI-H23 lung, over 60.8 µM; in the experiment on K-562 leukemia it was over 100 µM; in the experiment with MALME-3M melanoma it was 48.8 µM; in the experiment with NCI-H226 lung, 59.4 µM; in the experiment with SK-MEL-2 melanoma it was over 77.6 µM. The TGI in the experiment with OVCAR-5 ovarian was over 100 µM; in the experiment on A549 NSCLC it was over 100 µM; with OVCAR-8 ovarian it was 97.6 µM; with A498 renal, over 100 µM; in the experiment on HCT-15 colon it was over 100 µM.

Turning to `c1ccc(C(c2ccccc2)[P+](c2ccccc2)(c2ccccc2)c2ccccc2)cc1`, the TGI in the experiment on HT29 colon worked out at 6.73 µM; in the experiment with NCI-H23 lung, 5.05 µM; with K-562 leukemia, 10.1 µM; in the experiment on MALME-3M melanoma, 14.7 µM; with SNB-75 CNS, 5.17 µM; in the experiment with NCI-H226 lung, 6.03 µM. The TGI in the experiment with SK-MEL-2 melanoma came out at 1.25 µM; in the experiment on OVCAR-5 ovarian it was 13.3 µM; with A549 NSCLC, 14.6 µM; with OVCAR-8 ovarian it was 13.5 µM; in the experiment on A498 renal, 8.62 µM; in the experiment with HCT-15 colon, 17.9 µM.

Regarding `CCCCCCCCCCCCCCCC[N+](C)(C)CCN(Cc1ccc(OC)cc1)c1ncccn1`, the GI50 is 0.838 µM in the experiment on K-562 leukemia; 2.28 µM in the experiment with SNB-75 CNS; 2.77 µM in the experiment on NCI-H226 lung; 2.88 µM in the experiment on SK-MEL-2 melanoma; 1.91 µM in the experiment on OVCAR-5 ovarian; 1.69 µM in the experiment with A498 renal. In the experiment on HCT-15 colon, the GI50 was 18.6 µM. The TGI in the experiment with K-562 leukemia was over 100 µM; in the experiment with SNB-75 CNS it was 6.53 µM; with NCI-H226 lung, 14 µM; in the experiment with SK-MEL-2 melanoma, 6.95 µM; in the experiment with OVCAR-5 ovarian, 4.62 µM; in the experiment with A498 renal, 5.21 µM. The TGI in the experiment on HCT-15 colon is 60.1 µM.

`C=CCOC1OC(CS(=O)(=O)O)C(O)C(O)C1O` (configuration not stated): the TGI with HT29 colon, in the experiment with NCI-H23 lung, with K-562 leukemia, with MALME-3M melanoma, with SNB-75 CNS and in the experiment with NCI-H226 lung was over 100 µM each time. For the same compound, the TGI in the experiment on SK-MEL-2 melanoma, in the experiment on OVCAR-5 ovarian, in the experiment on OVCAR-8 ovarian, in the experiment with A498 renal and in the experiment on HCT-15 colon was over 100 µM each time.

`CS/C(=N\C(=S)Nc1ccccc1)Nc1ccccc1`: the TGI is 33.1 µM in the experiment with HT29 colon; over 100 µM in the experiment on NCI-H23 lung; over 100 µM with K-562 leukemia; 60.4 µM in the experiment with MALME-3M melanoma; 84.7 µM in the experiment on SNB-75 CNS; 70.5 µM in the experiment with NCI-H226 lung. Further, the TGI with SK-MEL-2 melanoma was determined as 56.4 µM; in the experiment on OVCAR-5 ovarian, 77.3 µM; in the experiment on A549 NSCLC, 59.2 µM; in the experiment on OVCAR-8 ovarian, 77.4 µM; in the experiment with A498 renal, 81.5 µM; in the experiment on HCT-15 colon, 58.1 µM.

With `O=C(c1ccccc1)[C@H]1Nc2ccc(Cl)cc2[C@H]2OCCC[C@@H]12`, the TGI in the experiment on HT29 colon was 35.3 µM; with NCI-H23 lung, 52 µM; with K-562 leukemia, 51.4 µM; in the experiment on MALME-3M melanoma, 48.1 µM; in the experiment on NCI-H226 lung it was 47.7 µM; in the experiment with SK-MEL-2 melanoma, 43.9 µM. The results for the TGI in the experiment with OVCAR-5 ovarian, in the experiment with OVCAR-8 ovarian and in the experiment on HCT-15 colon were 35.3 µM, 41.9 µM and 43.8 µM, respectively.

In the case of `FC(F)(F)C(C1=NC(C(F)(F)F)(C(F)(F)F)N=C(N2CCOCC2)O1)C(F)(F)F`, the TGI with HT29 colon was 57.8 µM; in the experiment with SNB-75 CNS, over 100 µM; in the experiment with SK-MEL-2 melanoma it was 57.8 µM; in the experiment with OVCAR-5 ovarian it was 46.4 µM; in the experiment with A549 NSCLC, 62.8 µM; with OVCAR-8 ovarian, 47.3 µM. This compound also came in with a TGI in the experiment with HCT-15 colon of over 100 µM.

`COc1ccc(C2C(=O)C(Cl)N2Nc2nc(C)cc(=O)[nH]2)cc1OC` (configuration not stated): the TGI with HT29 colon was over 100 µM; in the experiment with NCI-H23 lung, over 100 µM; in the experiment with K-562 leukemia, over 100 µM; in the experiment with SNB-75 CNS, 52.7 µM; in the experiment with SK-MEL-2 melanoma it was over 100 µM; with OVCAR-5 ovarian, over 100 µM. For the same compound, the TGI in the experiment on A549 NSCLC, with OVCAR-8 ovarian and in the experiment on HCT-15 colon was over 100 µM each time.

`Nc1ccc(C2NC(=O)Cc3c2ccc2ccccc32)cc1` (configuration not stated): the TGI in the experiment on HT29 colon, in the experiment with NCI-H23 lung, with K-562 leukemia, in the experiment on MALME-3M melanoma, in the experiment with SNB-75 CNS and in the experiment on NCI-H226 lung was over 100 µM throughout. In addition, the TGI in the experiment on SK-MEL-2 melanoma, in the experiment with OVCAR-5 ovarian, in the experiment on A549 NSCLC, with OVCAR-8 ovarian, in the experiment with A498 renal and in the experiment on HCT-15 colon was over 100 µM in each case.
